Data on two compounds can be found in ChEMBL document CHEMBL5120850, “Conformational adjustment overcomes multiple drug-resistance mutants of tropomyosin receptor kinase” (Eur J Med Chem, 2022).

Assay [1] relates to BaF3. Kind of assay: Antitumor activity against mouse Ba/F3 cells expressing in […] wildtype allografted in BALB/cA mouse assessed as reduction in tumor growth at 30 mg/kg twice daily for 12 to 14 days relative to control. It is filed as functional. The settings on record: time 12-14 day, read-out: TGI.
The subject of assay [2] is BaF3. As to the kind of experiment: Antitumor activity against mouse Ba/F3 cells expressing in ETV6-TRKC-G623R mutant allografted in BALB/cA mouse assessed as reduction in tumor growth at 30 mg/kg twice daily for 12 to 14 days relative to control. The settings on record: BaF3, read-out: TGI.

The structures appear in SMILES notation.

Regarding `O=C(Nc1cnn2ccc(N3CCC[C@@H]3c3cc(F)ccc3F)nc12)N1CC[C@H](O)C1` [LAROTRECTINIB], the inhibition in vivo at 30 mg/kg with BaF3 [1] came out at 30%.
Turning to `C[C@@H]1CCc2ncc(F)cc2[C@H]2CCCN2c2ccn3ncc(c3n2)C(=O)N1` [SELITRECTINIB], in the assay on BaF3 [2], the inhibition in vivo at 30 mg/kg amounted to 73%.
